Reference: patent US8343458B2, “Probes for in vivo targeting of active cysteine proteases” (The Board of Trustees of the Leland Stanford Junior …, priority 2008, dated 2013)
Where “and” joins values, the source holds several entries; their conditions need not be identical. Identical values can stand only once.

Tests used:
[1] = Octanol/water partition coefficient; format: physicochemical; conditions: octanol / PBS pH 7.4, repeated 3 times
Experimental: Octanol/water partition coefficient. To determine the lipophilicity of ^64Cu-Z-FK(DOTA)-AOMK, approximately 370 kBq of ^64Cu-labeled complex in 500 μl of PBS (pH 7.4) was added to 500 μl of octanol in an eppendorf microcentrifuge tube. The resulting biphasic system was mixed vigorously for 10 min and left at room temperature for another 60 min. The two phases were then separated by centrifugation at 2000 g for 5 min (model 5415R Eppendorf microcentrifuge; Brinkman, Westbury, N.Y.). From each layer, an aliquot of 100 μl was removed and counted in a γ-counter (Packard Instruments). The partition coefficient (log P) was then calculated as a ratio of counts in the octanol fraction to the counts in the water fraction. The experiment was repeated 3 times. The lipophilicity of the probe affects its in vivo pharmacokinetics, and should be modest (˜0), with hydrophobic and hydrophilic groups present. For further details, see Lin et al., “Role of Pharmacokinetics and Metabolism in Drug Discovery and Development,” Pharmacological Reviews, Vol. 49, Issue 4, 403-449, December 1997.

C2C12/Ras tumors = experiment: Biodistribution in nude mice bearing subcutaneous C2C12/Ras tumors; format: in vivo, mouse; conditions: for Biodistribution: Blood / Biodistribution: Bone / Biodistribution: Brain / Biodistribution: Heart / Biodistribution: Intestines / Biodistribution: Kidney / Biodistribution: Liver / Biodistribution: Lung / Biodistribution: Muscle / Biodistribution: Pancreas / Biodistribution: Spleen / Biodistribution: Stomach / Biodistribution: Tumor / Tumor/Blood ratio / Tumor/Muscle ratio: C2C12/Ras tumor mice, i.v. 740 kBq
Experimental: All animal studies were carried out in compliance with Federal and local institutional rules for the conduct of animal experimentation. Female athymic nude mice (nu/nu) were obtained from Charles River Laboratories (Boston, Mass.) at 7-8 weeks old and kept under sterile conditions. The nude mice were inoculated subcutaneously in the right shoulder with 2×10^6 cultured C2C12/Ras cells or 5×10^6 MDA-MB-435 cells. When the tumors reach 0.5-0.8 cm in diameter, the tumor bearing mice were subjected to in vivo biodistribution studies. For biodistribution studies, the mice bearing C2C12/Ras or MDA-MB-435 tumor xenografts (n=3 for each group) were injected with 740 KBq (20 μCi) of ^64Cu labeled tracer through the tail vein and sacrificed at different time points post injection (p.i.). Tumor and normal tissues of interest were removed and weighed, and their radioactivity was measured in a gamma-counter. The radioactivity uptake in the tumor and normal tissues was expressed as a percentage of the injected radioactive dose per gram of tissue (% ID/g).
We next examined the overall biodistribution of ^64Cu-Z-FK(DOTA)-AOMK using athymic nude mice carrying subcutaneously grafted C2C12/Ras and MDA-MB-435 tumors. […] Importantly, we observed rapid accumulation of radioactivity in the C2C12/Ras tumors expressing high levels of cysteine cathepsins (0.35±0.13% ID/g at 0.5 h p.i.). This activity remained in the tumors resulting in an uptake of 0.27±0.05% ID/g at 24 h p.i. For the MDA-MB-435 tumors with lower cysteine cathepsin expression, tumor uptake was approximately 2 fold lower at each time point relative to the C2C12/Ras tumors (P<0.05). […] The highest radioactivity was found in the liver due to high endogenous expression of various cysteine cathepsins. Moderate renal accumulation was also observed at all times in both tumor models.
Data are expressed as the percentage administered activity (injected dose) per gram of tissue (% ID/g) after intravenous injection of 740 kBq (20 μCi) of ^64Cu-Z-FK(DOTA)-AOMK at 0.5, 2, and 24 h pi (n=3). Significant lower tumor uptake and tumor/blood, tumor/muscle ratio in MDA-MB-435 breast cancer (P<0.05) were observed.

## Cc1cccc(C)c1C(=O)OCC(=O)[C@H](CCCCNC(=O)CN1CCN(CC(=O)[O-])CCN(CC(=O)O)CCN(CC(=O)[O-])CC1)NC(=O)[C@H](Cc1ccccc1)NC(=O)OCc1ccccc1.[64Cu+2] [^64Cu-Z-FK(DOTA)-AOMK]
[1]
  log P (octanol-water partition coefficient): −0.10±0.04
C2C12/Ras tumors; 0.5 h p.i.
  Biodistribution: Blood: 0.24 ± 0.07 % ID/g
  Biodistribution: Bone: 0.09 ± 0.02 % ID/g
  Biodistribution: Brain: 0.04 ± 0.03 % ID/g
  Biodistribution: Heart: 0.25 ± 0.02 % ID/g
  Biodistribution: Intestines: 1.84 ± 0.57 % ID/g
  Biodistribution: Kidney: 0.74 ± 0.29 % ID/g
  Biodistribution: Liver: 3.71 ± 1.04 % ID/g
  Biodistribution: Lung: 0.50 ± 0.17 % ID/g
  Biodistribution: Muscle: 0.06 ± 0.01 % ID/g
  Biodistribution: Pancreas: 0.25 ± 0.22 % ID/g
  Biodistribution: Spleen: 0.35 ± 0.24 % ID/g
  Biodistribution: Stomach: 0.63 ± 0.69 % ID/g
  Biodistribution: Tumor: 0.35±0.13 % ID/g
  Tumor/Blood ratio: 1.41 ± 0.32
  Tumor/Muscle ratio: 5.24 ± 1.35
C2C12/Ras tumors; 2 h p.i.
  Biodistribution: Blood: 0.24 ± 0.03 % ID/g
  Biodistribution: Bone: 0.10 ± 0.01 % ID/g
  Biodistribution: Brain: 0.02 ± 0.00 % ID/g
  Biodistribution: Heart: 0.30 ± 0.08 % ID/g
  Biodistribution: Intestines: 1.38 ± 0.54 % ID/g
  Biodistribution: Kidney: 0.67 ± 0.19 % ID/g
  Biodistribution: Liver: 3.59 ± 1.01 % ID/g
  Biodistribution: Lung: 0.59 ± 0.22 % ID/g
  Biodistribution: Muscle: 0.05 ± 0.01 % ID/g
  Biodistribution: Pancreas: 0.18 ± 0.08 % ID/g
  Biodistribution: Spleen: 0.24 ± 0.04 % ID/g
  Biodistribution: Stomach: 0.32 ± 0.06 % ID/g
  Biodistribution: Tumor: 0.30 ± 0.03 % ID/g
  Tumor/Blood ratio: 1.25 and 1.25 ± 0.21
  Tumor/Muscle ratio: 5.64 and 5.64 ± 0.98
C2C12/Ras tumors; 24 h p.i.
  Biodistribution: Blood: 0.28 ± 0.10 % ID/g
  Biodistribution: Bone: 0.14 ± 0.10 % ID/g
  Biodistribution: Brain: 0.05 ± 0.01 % ID/g
  Biodistribution: Heart: 0.46 ± 0.07 % ID/g
  Biodistribution: Intestines: 0.46 ± 0.04 % ID/g
  Biodistribution: Kidney: 0.72 ± 0.05 % ID/g
  Biodistribution: Liver: 1.86 ± 0.57 % ID/g
  Biodistribution: Lung: 0.65 ± 0.15 % ID/g
  Biodistribution: Muscle: 0.06 ± 0.02 % ID/g
  Biodistribution: Pancreas: 0.21 ± 0.06 % ID/g
  Biodistribution: Spleen: 0.42 ± 0.06 % ID/g
  Biodistribution: Stomach: 0.27 ± 0.11 % ID/g
  Biodistribution: Tumor: 0.27±0.05 % ID/g
  Tumor/Blood ratio: 0.99 ± 0.24
  Tumor/Muscle ratio: 4.07 ± 1.13
C2C12/Ras tumors; both tumor models, nude mice, i.v.
  Blood clearance: rapid clearance in blood
